Laboratory results reported in patent publication US20190381037A1, “Benzylaminopyridylcyclopropanecarboxylic acids, pharmaceutical compositions and uses thereof” (Boehringer Ingelheim International GmbH, priority 2017, published 2019).

Target: human GPR40 receptor (Homo sapiens, UniProt O14842)
Test: IP1 accumulation measurements using the IPOne assay system
Format: cell-based
Details: 1321N1 cells stably expressing human GPR40 receptor; stimulated 1 h at 37° C.
Description: IP1 accumulation measurements using the IPOne assay system—1321N1 cells stably expressing human GPR40 receptor (Euroscreen, Belgium) are seeded 24 h before the assay in white 384-well plates in culture medium containing 10% FCS, 1% Na-Pyruvate and 400 μg/mL G418. IP1 is assayed according to the manufacturer's description (Cisbio Bioassays, France). In brief, the assay is started by substitution of the culture medium by stimulation buffer (Hepes 10 mM, CaCl2) 1 mM, MgCl2 0.5 mM, KCl 4.2 mM, NaCl 146 mM, glucose 5.5 mM and LiCl 50 mM, pH 7.4). Cells are stimulated for 1 h at 37° C., 5% CO2 by addition of the compounds that are diluted in stimulation buffer containing LiCl. Assays are stopped by adding HTRF-conjugates (IP1-d2 and Anti-IP1 cryptate Tb) and lysis buffer, provided by the manufacturer. After an incubation time of 1 h at room temperature plates are measured using an EnVision™, Perkin Elmer. The obtained fluorescence ratios at 665/615 […] are then used to calculate the pEC50 values using Assay Explorer 3.3 Software (Accelrys, Inc.) by interpolation using an IP1 reference curve and subsequent sigmoidal curve fitting allowing for a variable hill slope.

Sequence of human GPR40 receptor (O14842 whole entry): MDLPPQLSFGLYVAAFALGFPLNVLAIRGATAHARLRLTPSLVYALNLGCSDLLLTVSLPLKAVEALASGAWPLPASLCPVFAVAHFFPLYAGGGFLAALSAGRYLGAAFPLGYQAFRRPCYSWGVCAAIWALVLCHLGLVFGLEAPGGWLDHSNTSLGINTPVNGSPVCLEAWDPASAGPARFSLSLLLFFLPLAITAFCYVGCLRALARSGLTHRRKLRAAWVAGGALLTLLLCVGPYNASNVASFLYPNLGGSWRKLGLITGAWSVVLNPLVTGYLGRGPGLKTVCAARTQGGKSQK

SMILES: CCc1cccc(CC)c1-c1cccc(COc2cnc([C@H]3C[C@@H]3C(=O)O)cn2)c1 [Example 13, (1 S,2S)-2-[5-(2′,6′-Diethyl-biphenyl-3-ylmethoxy)-pyrazin-2-yl]-cyclopropane-carboxylic acid]
- EC50: 20 nM

SMILES: Cc1cc(-c2cnccn2)cc(C)c1-c1cccc(COc2cnc([C@H]3C[C@@H]3C(=O)O)cn2)c1 [Example 10, (1 S,2S)-2-[5-(2′,6′-Dimethyl-4′-pyrazin-2-yl-biphenyl-3-ylmethoxy)-pyrazin-2-yl]-cyclopropanecarboxylic acid]
- EC50: 13 nM

SMILES: Cc1cc(OCC2CCCO2)cc(C)c1-c1ccc(F)c(COc2cnc([C@H]3C[C@@H]3C(=O)O)cn2)c1 (stereo partly drawn) [Example 14, (1 S,2S)-2-{5-[4-Fluoro-2′,6′-dimethyl-4′-(tetrahydro-furan-2-ylmethoxy)-biphenyl-3-ylmethoxy]-pyrazin-2-yl}-cyclopropanecarboxylic acid]
- EC50: 6 nM

SMILES: COc1cc(C)c(-c2cccc(COc3cnc([C@H]4C[C@@H]4C(=O)O)cn3)c2)c(C)c1 [Example 4, (1 S,2S)-2-[5-(4′-Methoxy-2′,6′-dimethyl-biphenyl-3-ylmethoxy)-pyrazin-2-yl]-cyclopropanecarboxylic acid]
- EC50: 12 nM

SMILES: CC(C)(O)CCOc1ccc(-c2cc(COc3cnc([C@H]4C[C@@H]4C(=O)O)cn3)ccc2C(F)(F)F)cc1 [Example 21, (1 S,2S)-2-{5-[4′-(3-Hydroxy-3-methyl-butoxy)-6-trifluoromethyl-biphenyl-3-ylmethoxy]-pyrazin-2-yl}-cyclopropanecarboxylic acid]
- EC50: 3 nM

SMILES: Cc1cc(-c2nnn(C)n2)cc(C)c1-c1cccc(COc2cnc([C@H]3C[C@@H]3C(=O)O)cn2)c1 [Example 2, (1 S,2S)-2-{5-[2′,6′-Dimethyl-4′-(2-methyl-2H-tetrazol-5-yl)-biphenyl-3-ylmethoxy]-pyrazin-2-yl}-cyclopropanecarboxylic acid]
- EC50: 3 nM

SMILES: O=C(O)[C@H]1C[C@@H]1c1cnc(OCc2cc(-c3c(Cl)cccc3Cl)ccc2F)cn1 [Example 15, (1 S,2S)-2-[5-(2′,6′-Dichloro-4-fluoro-biphenyl-3-ylmethoxy)-pyrazin-2-yl]-cyclopropanecarboxylic acid]
- EC50: 8 nM

SMILES: Cc1cc(-c2ccc(=O)n(C)c2)cc(C)c1-c1cccc(COc2cnc([C@H]3C[C@@H]3C(=O)O)cn2)c1 [Example 9, (1 S,2S)-2-{5-[2′,6′-Dimethyl-4′-(1-methyl-6-oxo-1,6-dihydro-pyridin-3-yl)-biphenyl-3-ylmethoxy]-pyrazin-2-yl}-cyclopropanecarboxylic acid]
- EC50: 9 nM

SMILES: CC(C)c1ccccc1-c1ccc(F)c(COc2cnc([C@H]3C[C@@H]3C(=O)O)cn2)c1 [Example 20, (1 S,2S)-2-[5-(4-Fluoro-2′-isopropyl-biphenyl-3-ylmethoxy)-pyrazin-2-yl]-cyclopropanecarboxylic acid]
- EC50: 35 nM

SMILES: O=C(O)[C@H]1C[C@@H]1c1cnc(OCc2cccc(-c3ccccc3C(F)(F)F)c2)cn1 [Example 3, (1 S,2S)-2-[5-(2′-Trifluoromethyl-biphenyl-3-ylmethoxy)-pyrazin-2-yl]-cyclopropanecarboxylic acid]
- EC50: 24 nM

SMILES: Cc1cnc(-c2cc(C)c(-c3ccc(F)c(COc4cnc([C@H]5C[C@@H]5C(=O)O)cn4)c3)c(C)c2)nc1 [Example 16, (1 S,2S)-2-{5-[4-Fluoro-2′,6′-dimethyl-4′-(5-methyl-pyrimidin-2-yl)-biphenyl-3-ylmethoxy]-pyrazin-2-yl}-cyclopropanecarboxylic acid]
- EC50: 3 nM

SMILES: Cc1cc(-c2nnn(CC(C)(C)O)n2)cc(C)c1-c1cccc(COc2cnc([C@H]3C[C@@H]3C(=O)O)cn2)c1 [Example 12, (1 S,2S)-2-(5-{4′-[2-(2-Hydroxy-2-methyl-propyl)-2H-tetrazol-5-yl]-2′,6′-dimethyl-biphenyl-3-ylmethoxy}-pyrazin-2-yl)-cyclopropanecarboxylic acid]
- EC50: 8 nM

SMILES: O=C(O)[C@H]1C[C@@H]1c1cnc(OCc2cccc(-c3ccc(-c4cnco4)cc3)c2)cn1 [Example 5, (1 S,2S)-2-[5-(4′-Oxazol-5-yl-biphenyl-3-ylmethoxy)-pyrazin-2-yl]-cyclopropane-carboxylic acid]
- EC50: 67 nM

SMILES: Cc1cc(OCCCS(C)(=O)=O)cc(C)c1-c1ccc(F)c(COc2cnc([C@H]3C[C@@H]3C(=O)O)cn2)c1 [Example 18, (1 S,2S)-2-{5-[4-Fluoro-4′-(3-methanesulfonyl-propoxy)-2′,6′-dimethyl-biphenyl-3-ylmethoxy]-pyrazin-2-yl}-cyclopropanecarboxylic acid]
- EC50: 7 nM

SMILES: Cc1cc(-c2ccnn2C)cc(C)c1-c1cccc(COc2cnc([C@H]3C[C@@H]3C(=O)O)cn2)c1 [Example 11, (1 S,2S)-2-{5-[2′,6′-Dimethyl-4′-(2-methyl-2H-pyrazol-3-yl)-biphenyl-3-ylmethoxy]-pyrazin-2-yl}-cyclopropanecarboxylic acid]
- EC50: 6 nM

SMILES: Cc1cc(O[C@H]2CCOC2)cc(C)c1-c1cccc(COc2cnc([C@H]3C[C@@H]3C(=O)O)cn2)c1 [Example 6, (1 S,2S)-2-(5-{2′,6′-Dimethyl-4′-[(S)-(tetrahydro-furan-3-yl)oxy]-biphenyl-3-ylmethoxy}-pyrazin-2-yl)-cyclopropanecarboxylic acid]
- EC50: 10 nM

SMILES: Cc1cc(OCCC(C)(C)O)cc(C)c1-c1cccc(COc2cnc([C@H]3C[C@@H]3C(=O)O)cn2)c1 [Example 8, (1 S,2S)-2-{5-[4′-(3-Hydroxy-3-methyl-butoxy)-2′,6′-dimethyl-biphenyl-3-ylmethoxy]-pyrazin-2-yl}-cyclopropanecarboxylic acid]
- EC50: 7 nM

SMILES: Cc1nnc(-c2ccc(-c3cc(COc4cnc([C@H]5C[C@@H]5C(=O)O)cn4)ccc3C(F)(F)F)cc2)o1 [Example 22, (1 S,2S)-2-{5-[4′-(5-Methyl-[1,3,4]oxadiazol-2-yl)-6-trifluoromethyl-biphenyl-3-ylmethoxy]-pyrazin-2-yl}-cyclopropanecarboxylic acid]
- EC50: 4 nM

SMILES: Cc1cc(OC2CCOCC2)cc(C)c1-c1cccc(COc2cnc([C@H]3C[C@@H]3C(=O)O)cn2)c1 [Example 7, (1 S,2S)-2-{5-[2′,6′-Dimethyl-4′-(tetrahydro-pyran-4-yloxy)-biphenyl-3-ylmethoxy]-pyrazin-2-yl}-cyclopropanecarboxylic acid]
- EC50: 8 nM

SMILES: Cc1cc(OCC2CCOCC2)cc(C)c1-c1ccc(F)c(COc2cnc([C@H]3C[C@@H]3C(=O)O)cn2)c1 [Example 19, (1 S,2S)-2-{5-[4-Fluoro-2′,6′-dimethyl-4′-(tetrahydro-pyran-4-ylmethoxy)-biphenyl-3-ylmethoxy]-pyrazin-2-yl}-cyclopropanecarboxylic acid]
- EC50: 6 nM

SMILES: COc1cc(-c2cc(C)c(-c3ccc(F)c(COc4cnc([C@H]5C[C@@H]5C(=O)O)cn4)c3)c(C)c2)ccn1 [Example 17, (1 S,2S)-2-{5-[4-Fluoro-4′-(2-methoxy-pyridin-4-yl)-2′,6′-dimethyl-biphenyl-3-ylmethoxy]-pyrazin-2-yl}-cyclopropanecarboxylic acid]
- EC50: 7 nM

SMILES: Cc1cc(OCCC(C)(C)O)cc(C)c1-c1cc(COc2cnc([C@H]3C[C@@H]3C(=O)O)cn2)c(F)cc1F [Example 1, (1 S,2S)-2-{5-[4,6-Difluoro-4′-(3-hydroxy-3-methyl-butoxy)-2′,6′-dimethyl-biphenyl-3-ylmethoxy]-pyrazin-2-yl}-cyclopropanecarboxylic acid]
- EC50: 6 nM
